Measured values from patent US20220162610A1, “NOVEL RNA TRANSCRIPT” (PTC Therapeutics, Inc., priority 2020, published 2022).

How the values were obtained:
human HTT protein = test: Pharmacodynamic study in Hu97/18 mice, HTT protein in tissues, CSF and plasma; type: in vivo
Method: Test mice were euthanised and brain, muscle (quadriceps), and blood samples were harvested 2 hours after the last dose on Day 20. Prior to analysis, crude total protein from brain and muscle tissue samples was prepared by sample lysis in MSD® assay buffer 1 (MSD®) with Complete™ Protease Inhibitor Cocktail added (Roche Diagnostics). Tissues were then homogenised using TissueLyser II (Qiagen) plus a 5 mm stainless steel bead. The lysate was clarified by centrifugation at 16,000×g for 20 minutes at 4° C. and the total protein concentration quantified with the Pierce™ BCA Protein Assay Kit (Thermo Scientific) according to the manufacturer's instructions. Whole blood was collected by cardiac puncture into EDTA collection tubes. An aliquot (100-200 μL) was added to 1.5 mL of eBioscience™ 1× Red Blood Cell Lysis Buffer (Thermo Fisher) and mixed well for 5 minutes before collecting the white blood cells (WBC) by centrifugation at 400×g. The supernatant was discarded, and the pellet of WBCs was frozen in liquid nitrogen and stored at −70° C. Brain and muscle sample lysates were analysed for hHTT and KRAS protein expression using the ECL protein assay (described previously); using the same method WBC samples were also analysed for hHTT expression but not KRAS.
Hu97/Hu18: Both sexes of 2-4 month old Hu97/181 mice were used. […]

HTT pre-mRNA intron 49 = test: Ampliseq Junction Expression Index (JEI) of HTT introns in GM04856 cells; type: cell-based, human; settings: 125 nM, 24 h, vs DMSO, P<0.05
Method: Targeted next-generation sequencing Novel splicing events originating from HTT pre-mRNA upon compound treatment were further analyzed using AmpliSeq technology. The GM04856 cells were plated in 6-well plates at 500,000 cells/well in 2000 μl DMEM/10% FBS and incubated for 6 hours in a cell culture incubator (37° C., 5% CO2, 100% relative humidity). Cells were then treated in triplicate with HTT-C1 at 125 nM (in 0.5% DMSO) for 24 hours. Following treatment, RNA was purified using an RNeasy Mini Kit (Qiagen) according to the manufacturer's protocol. Novel splice variants induced by the HTT-C1 compound were detected using Ion AmpliSeq technology (Life Technologies), a PCR-based target enrichment and next-generation sequencing platform. PCR enrichment of HTT exon targets was accomplished by applying a custom HTT AmpliSeq panel. The panel consisted of two separate PCR primer pools, each producing 33 amplicons. […]
For data analysis, Ampliseq reads (Fastq format) were mapped to human genome (hg19) using tophat2 which allowed identification of both known and novel splice junctions. For each one of the 66 introns of HTT gene, a Junction Expression Index (JEI) was calculated using the percent of reads supporting the splicing of the exact annotated intron among all reads supporting the splicing isoforms using either the 5′ splice or/and 3′ splice site of that intron (FIG. 3B). […]

| Structure (SMILES) | HTT protein in striatum and cortex (human HTT protein; 2, 6 or 12 mg/kg daily for 21 days) | HTT protein within the brain and peripheral tissues (human HTT protein; Hu97/18 mice) | reduction of junction expression index (JEI) in intron 49 (HTT pre-mRNA intron 49) [%] |
| --- | --- | --- | --- |
| CCN1CCC(c2cc3c(F)cc(-c4cc(C)c5nc(C)cn5n4)cc3nn2)CC1 [HTT-D3] | uniform HTT protein reduction | dose dependent and more equitable lowering of HTT protein |  |
| CC1(C)CC(Oc2ccc(-c3ccc(-c4ccnc(O)c4)cc3O)nn2)CC(C)(C)N1 [HTT-C1] |  |  | > 25 |
